{
  "source": "patent US10688197B2",
  "about": "“Non-alcoholic fatty liver regulator 14-3-3 protein” (Korea University Research and Business Foundation, priority 2015, dated 2020)",
  "key": {"PPARγ2 S273A mutant": {"biological_target": "T1, PPARγ2 S273A mutant (Homo sapiens, UniProt P37231, S273A)", "T1 construct": "expressed in transfected cells; host or cells: HEK-293T", "T1 sequence (P37231 1-505 S273A)": "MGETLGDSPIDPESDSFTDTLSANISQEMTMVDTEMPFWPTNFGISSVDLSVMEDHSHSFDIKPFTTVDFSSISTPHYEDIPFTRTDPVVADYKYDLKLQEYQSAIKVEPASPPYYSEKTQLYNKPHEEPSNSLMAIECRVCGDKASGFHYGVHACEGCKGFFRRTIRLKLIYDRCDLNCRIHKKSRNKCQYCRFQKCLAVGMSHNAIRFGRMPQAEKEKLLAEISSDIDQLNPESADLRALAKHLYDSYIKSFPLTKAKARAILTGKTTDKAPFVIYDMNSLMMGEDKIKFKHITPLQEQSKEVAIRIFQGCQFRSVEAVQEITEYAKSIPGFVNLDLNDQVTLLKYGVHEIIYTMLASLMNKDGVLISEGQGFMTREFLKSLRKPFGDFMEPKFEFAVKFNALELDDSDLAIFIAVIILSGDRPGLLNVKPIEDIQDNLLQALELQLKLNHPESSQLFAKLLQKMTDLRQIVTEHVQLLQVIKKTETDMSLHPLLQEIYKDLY", "experiment": "GST-pull down assay with PPARγ2 S273A mutant", "type": "binding", "settings": "FIGS. 4A and 4B", "method": "14-3-3 proteins are known to bind to phosphorylated residues of a target protein. Phosphorylated residues associated with the activity of PPARγ2 are known to be serine 112 and serine 273. Thus, PPARγ2 mutants (PPARγ2 S112A and S273A) with non-phosphorylated serine 112 and serine 273 residues were produced and binding thereof with 14-3-3 proteins was verified through GST-pull down assay.\nHEK-293T cells were seeded in a 100 mm plate at a density of 2×10^6 cells per each well, and then transfected with Flag-PPARγ2 (WT) DNA (4 μg), Flag-PPARγ2 (S112A) DNA (4 μg), Flag-PPARγ2 (S273A) DNA (4 μg), and mGST-14-3-3β (4 μg) or mGST-14-3-3γ (4 μg) using an E-fection plus reagent (Lugen). As for Flag-PPARγ2 (S112A) DNA and Flag-PPARγ2 (S273A) DNA, DNA fragments amplified through polymerase chain reaction (PCR) were cloned into a Flag-tagged vector. A ratio of DNA to the E-fection plus reagent was 1:2, and this method was performed according to a manufacturer's manual. The corresponding cells were washed with ice-cold PBS and lysed using 500 μl/well of a lysis buffer (150 mM NaCl, 1 mM EDTA, 1% Nonidet P-40, 5% glycerol, 25 mM tris-HCl, pH 7.5, protease inhibitor added), and the lysed cells were centrifuged at 10,000×g and 4° C. for 10 minutes to extract proteins. […]"}, "FAT/CD36 promoter": {"system": "FAT/CD36 promoter", "experiment": "Chromatin immunoprecipitation (ChIP assay), binding of PPARγ2 to FAT/CD36 promoter in HepG2 cells", "type": "cell-based", "settings": "overexpression, FIG. 7C upper side", "method": "In addition, for chromatin immunoprecipitation (ChIP), HepG2 cells were seeded in a 100 mm plate at a density of 4×10^6 cells per each well, and then transfected with Flag-PPARγ2 DNA (4 μg), mGST-14-3-3β DNA (4 μg) or mGST-14-3-3γ DNA (4 μg), and si-14-3-3β (20 μM, Santa Cruz) or si-14-3-3γ (20 μM, Santa Cruz) using an E-fection plus reagent (Lugen). A ratio of DNA to the E-fection plus reagent was 1:2, and this method was performed according to a manufacturer's manual. The corresponding cells were treated with 0.75% formaldehyde at room temperature for 15 minutes, glycine was added thereto, and the resulting cells were scraped into ice-cold PBS and centrifuged at 1,000×g and 4° C. for 3 minutes to remove a supernatant, pellets were dissolved with 400 μl of FA lysis buffer (50 mM HEPES, 150 mM NaCl, 2 mM EDTA pH 8.0, 1% Triton-X100, 0.1% NaDeoxycholate), and then lysed using a sonicator twice for 10 minutes at a high voltage under the following condition: lysis for 30 seconds and resting for 30 seconds. […]\nIn addition, the binding of PPARγ2 and a binding strength thereof according to the expression of 14-3-3β and 14-3-3γ were evaluated by ChIP assay using a PPAR response element (PPRE) known as a binding site of PPARγ2 present in the FAT/CD36 promoter. […]"}, "HepG2 cells": {"system": "HepG2 cells", "experiment": "Triglyceride colorimetric assay in HepG2 cells", "type": "cell-based, human", "settings": "HepG2, overexpression, 200 μM oleic acid 72 hours, FIG. 10A", "method": "HepG2 cells and primary mouse hepatocytes were separately seeded in a 6-well plate at a density of 4×10^5 cells per each well, and then transfected with GFP-14-3-3β DNA (1 μg) or GFP-14-3-3γ DNA (1 μg) and si-14-3-3β (10 μM, Santa Cruz) or si-14-3-3γ (10 μM, Santa Cruz) using an E-fection plus reagent (Lugen). A ratio of DNA to the E-fection plus reagent was 1:2, and this method was performed according to a manufacturer's manual. After transfection, the cells were treated with 200 μM of oleic acid (OA) for 72 hours, and the amount of triglycerides was measured using a triglyceride colorimetric assay kit (Cayman Chemical). The corresponding cells were washed with ice-cold PBS and then scraped using a standard diluent assay reagent, the scrapping process was repeated using a sonicator 20 times to lyse the cells, and the lysed cells were reacted with an enzyme buffer solution for 15 minutes, followed by measurement using an ELISA reader (Bio-Rad Laboratories, Inc) at a wavelength of 550 nm."}},
  "data": [
    {"substance": "14-3-3β: 14-3-3 isoform protein overexpressed by DNA transfection; increases the transcriptional activity of PPARγ2 by binding to PPARγ2", "values": [
      {"measurement": "binding with PPARγ2 S273A mutant", "setting": "PPARγ2 S273A mutant", "value": "suppressed"},
      {"measurement": "binding of PPARγ2 to the FAT/CD36 promoter", "setting": "FAT/CD36 promoter", "value": "increased"},
      {"measurement": "triglyceride accumulation", "setting": "HepG2 cells", "value": "further increased"}
    ]},
    {"substance": "14-3-3γ: 14-3-3 isoform protein overexpressed by DNA transfection; decreases the transcriptional activity of PPARγ2; proposed active ingredient", "values": [
      {"measurement": "binding with PPARγ2 S273A mutant", "setting": "PPARγ2 S273A mutant", "value": "suppressed"},
      {"measurement": "binding of PPARγ2 to the FAT/CD36 promoter", "setting": "FAT/CD36 promoter", "value": "inhibited"},
      {"measurement": "triglyceride accumulation", "setting": "HepG2 cells", "value": "reduced"}
    ]}
  ]
}
